The supplement of paper PMC10307832

Key:
Test in all cases: relative viability (nuclei count vs DMSO), 5 days (fraction); higher = more cells survive
SK-MES-1 = test system: SK-MES-1
In short: (§1)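 Lung cancer cell lines in 1536-well plates were dosed by pin tool the day after seeding, either with one drug alone or with a fixed anchor-drug dose plus five library-drug doses (not always all listed) in √10 steps. After 5 days, cells were fixed and their nuclei stained in one step (final 0.05% Triton X-100, 1% formaldehyde, 1 ug/ml Hoechst), then counted on 4× images. Relative viability is the nuclei count in treated wells divided by that in vehicle wells. Values are medians of duplicate plates.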

NCI-H3122 = test system: NCI-H3122
In short: as §1

HCC-78 = test system: HCC-78
In short: as §1

NCI-H596 = test system: NCI-H596
In short: as §1

NCI-H2085 = test system: NCI-H2085
In short: as §1

RERF-LC-KJ = test system: RERF-LC-KJ
In short: as §1

NCI-H838 = test system: NCI-H838
In short: as §1

PC-14 = test system: PC-14
In short: as §1

NCI-H1993 = test system: NCI-H1993
In short: as §1

NCI-H2228 = test system: NCI-H2228
In short: as §1

LC-2-ad = test system: LC-2-ad
In short: as §1

SW 1573 = test system: SW 1573
In short: as §1

NCI-H2347 = test system: NCI-H2347
In short: as §1

NCI-H2405 = test system: NCI-H2405
In short: as §1

HCC-366 = test system: HCC-366
In short: as §1

LK-2 = test system: LK-2
In short: as §1

EMC-BAC-2 = test system: EMC-BAC-2
In short: as §1

NCI-H1355 = test system: NCI-H1355
In short: as §1

HOP-62 = test system: HOP-62
In short: as §1

CAL-12T = test system: CAL-12T
In short: as §1

NCI-H1734 = test system: NCI-H1734
In short: as §1

ChaGo-K-1 = test system: ChaGo-K-1
In short: as §1

NCI-H2009 = test system: NCI-H2009
In short: as §1

Structure (SMILES): O=c1[nH]c2ccccc2n1C1CCN(CCCC(c2ccc(F)cc2)c2ccc(F)cc2)CC1 [Pimozide] + C[C@@H](Oc1cc(-c2cnn(C3CCNCC3)c2)cnc1N)c1c(Cl)ccc(F)c1Cl [Crizotinib] (partner 1 µM)
- relative viability (SK-MES-1; first compound 0.08 µM): 0.882
- relative viability (SK-MES-1; first compound 0.253 µM): 0.928
- relative viability (SK-MES-1; first compound 0.8 µM): 0.957
- relative viability (SK-MES-1; first compound 2.53 µM): 1.01
- relative viability (SK-MES-1; first compound 8 µM): 0.901
- relative viability (NCI-H3122; first compound 0.08 µM): 0.27
- relative viability (NCI-H3122; first compound 0.253 µM): 0.28
- relative viability (NCI-H3122; first compound 0.8 µM): 0.275
- relative viability (NCI-H3122; first compound 2.53 µM): 0.301
- relative viability (NCI-H3122; first compound 8 µM): 0.279
- relative viability (HCC-78; first compound 0.08 µM): 0.263
- relative viability (HCC-78; first compound 0.253 µM): 0.339
- relative viability (HCC-78; first compound 0.8 µM): 0.333
- relative viability (HCC-78; first compound 2.53 µM): 0.354
- relative viability (HCC-78; first compound 8 µM): 0.315
- relative viability (NCI-H596; first compound 0.08 µM): 0.943
- relative viability (NCI-H596; first compound 0.253 µM): 1.05
- relative viability (NCI-H596; first compound 0.8 µM): 0.928
- relative viability (NCI-H596; first compound 2.53 µM): 0.911
- relative viability (NCI-H596; first compound 8 µM): 0.831
- relative viability (NCI-H2085; first compound 0.08 µM): 0.897
- relative viability (NCI-H2085; first compound 0.253 µM): 0.792
- relative viability (NCI-H2085; first compound 0.8 µM): 0.772
- relative viability (NCI-H2085; first compound 2.53 µM): 0.712
- relative viability (NCI-H2085; first compound 8 µM): 0.775
- relative viability (RERF-LC-KJ; first compound 0.08 µM): 0.809
- relative viability (RERF-LC-KJ; first compound 0.253 µM): 0.815
- relative viability (RERF-LC-KJ; first compound 0.8 µM): 0.764
- relative viability (RERF-LC-KJ; first compound 2.53 µM): 0.581
- relative viability (RERF-LC-KJ; first compound 8 µM): 0.705
- relative viability (NCI-H838; first compound 0.08 µM): 0.855
- relative viability (NCI-H838; first compound 0.253 µM): 0.808
- relative viability (NCI-H838; first compound 0.8 µM): 0.786
- relative viability (NCI-H838; first compound 2.53 µM): 0.774
- relative viability (NCI-H838; first compound 8 µM): 0.955
- relative viability (PC-14; first compound 0.253 µM): 0.84
- relative viability (PC-14; first compound 0.8 µM): 0.943
- relative viability (PC-14; first compound 2.53 µM): 0.934
- relative viability (PC-14; first compound 8 µM): 0.978
- relative viability (NCI-H1993; first compound 0.08 µM): 0.818
- relative viability (NCI-H1993; first compound 0.253 µM): 0.816
- relative viability (NCI-H1993; first compound 0.8 µM): 0.816
- relative viability (NCI-H1993; first compound 2.53 µM): 0.859
- relative viability (NCI-H1993; first compound 8 µM): 0.898
- relative viability (NCI-H2228; first compound 0.08 µM): 0.406
- relative viability (NCI-H2228; first compound 0.253 µM): 0.572
- relative viability (NCI-H2228; first compound 0.8 µM): 0.406
- relative viability (NCI-H2228; first compound 2.53 µM): 0.38
- relative viability (NCI-H2228; first compound 8 µM): 0.354
- relative viability (LC-2-ad; first compound 0.08 µM): 0.474
- relative viability (LC-2-ad; first compound 0.253 µM): 0.441
- relative viability (LC-2-ad; first compound 0.8 µM): 0.403
- relative viability (LC-2-ad; first compound 2.53 µM): 0.466
- relative viability (LC-2-ad; first compound 8 µM): 0.479
- relative viability (SW 1573; first compound 0.08 µM): 0.797
- relative viability (SW 1573; first compound 0.253 µM): 0.759
- relative viability (SW 1573; first compound 0.8 µM): 0.803
- relative viability (SW 1573; first compound 2.53 µM): 0.805
- relative viability (SW 1573; first compound 8 µM): 0.779
- relative viability (NCI-H2347; first compound 0.08 µM): 0.807
- relative viability (NCI-H2347; first compound 0.253 µM): 0.661
- relative viability (NCI-H2347; first compound 0.8 µM): 0.545
- relative viability (NCI-H2347; first compound 2.53 µM): 0.517
- relative viability (NCI-H2347; first compound 8 µM): 0.51
- relative viability (NCI-H2405; first compound 0.08 µM): 0.831
- relative viability (NCI-H2405; first compound 0.253 µM): 0.814
- relative viability (NCI-H2405; first compound 0.8 µM): 0.83
- relative viability (NCI-H2405; first compound 2.53 µM): 0.819
- relative viability (NCI-H2405; first compound 8 µM): 0.789
- relative viability (HCC-366; first compound 0.08 µM): 0.574
- relative viability (HCC-366; first compound 0.253 µM): 0.455
- relative viability (HCC-366; first compound 0.8 µM): 0.448
- relative viability (HCC-366; first compound 2.53 µM): 0.503
- relative viability (HCC-366; first compound 8 µM): 0.525
- relative viability (LK-2; first compound 0.08 µM): 0.225
- relative viability (LK-2; first compound 0.253 µM): 0.224
- relative viability (LK-2; first compound 0.8 µM): 0.243
- relative viability (LK-2; first compound 2.53 µM): 0.225
- relative viability (LK-2; first compound 8 µM): 0.234
- relative viability (EMC-BAC-2; first compound 0.08 µM): 0.752
- relative viability (EMC-BAC-2; first compound 0.253 µM): 0.79
- relative viability (EMC-BAC-2; first compound 0.8 µM): 0.691
- relative viability (EMC-BAC-2; first compound 2.53 µM): 0.616
- relative viability (EMC-BAC-2; first compound 8 µM): 0.691
- relative viability (NCI-H1355; first compound 0.08 µM): 1.08
- relative viability (NCI-H1355; first compound 0.253 µM): 0.988
- relative viability (NCI-H1355; first compound 0.8 µM): 0.959
- relative viability (NCI-H1355; first compound 2.53 µM): 0.937
- relative viability (NCI-H1355; first compound 8 µM): 1.06
- relative viability (HOP-62; first compound 0.08 µM): 1.03
- relative viability (HOP-62; first compound 0.253 µM): 0.859
- relative viability (HOP-62; first compound 2.53 µM): 0.819
- relative viability (HOP-62; first compound 8 µM): 0.991
- relative viability (CAL-12T; first compound 0.08 µM): 0.711
- relative viability (CAL-12T; first compound 0.253 µM): 0.644
- relative viability (CAL-12T; first compound 0.8 µM): 0.557
- relative viability (CAL-12T; first compound 2.53 µM): 0.469
- relative viability (CAL-12T; first compound 8 µM): 0.473
- relative viability (NCI-H1734; first compound 0.08 µM): 0.646
- relative viability (NCI-H1734; first compound 0.253 µM): 0.633
- relative viability (NCI-H1734; first compound 0.8 µM): 0.716
- relative viability (NCI-H1734; first compound 2.53 µM): 0.609
- relative viability (NCI-H1734; first compound 8 µM): 0.722
- relative viability (ChaGo-K-1; first compound 0.08 µM): 1.18
- relative viability (ChaGo-K-1; first compound 0.253 µM): 1.04
- relative viability (ChaGo-K-1; first compound 0.8 µM): 1.15
- relative viability (ChaGo-K-1; first compound 2.53 µM): 1.02
- relative viability (ChaGo-K-1; first compound 8 µM): 0.944
- relative viability (NCI-H2009; first compound 0.08 µM): 1.02
- relative viability (NCI-H2009; first compound 0.253 µM): 0.995
- relative viability (NCI-H2009; first compound 0.8 µM): 1.09
- relative viability (NCI-H2009; first compound 2.53 µM): 1.01
- relative viability (NCI-H2009; first compound 8 µM): 0.889
